Data as given in PubChem BioAssay AID1259407 (Chemical Carcinogenesis Research Information System (CCRIS), 2018).
Active and inactive are the calls of the source. How the calls were made is not given here.

System: CCRIS mutagenicity, Ames/micronucleus/aberration tests
Experiment: CCRIS mutagenicity studies
[1] = Test System: AMES SALMONELLA TYPHIMURIUM, Strain/Indicator: TA98, Metabolic Activation: NONE, Method: STANDARD PLATE
[2] = Test System: AMES SALMONELLA TYPHIMURIUM, Strain/Indicator: TA100, Metabolic Activation: NONE, Method: STANDARD PLATE
[3] = Test System: AMES SALMONELLA TYPHIMURIUM, Strain/Indicator: TA98, Metabolic Activation: NONE, Method: PREINCUBATION
[4] = Test System: AMES SALMONELLA TYPHIMURIUM, Strain/Indicator: TA100, Metabolic Activation: NONE, Method: PREINCUBATION
[5] = Test System: AMES SALMONELLA TYPHIMURIUM, Strain/Indicator: TA1535, Metabolic Activation: NONE, Method: PREINCUBATION

**Q.** With `Nc1ccc2c(c1)C(=O)c1ccc(N)cc1C2=O` as the compound, how does the mutagenic call [1] read?
**A.** Its mutagenic call is “inactive; negative”.

**Q.** And the mutagenic call (Test System: AMES SALMONELLA TYPHIMURIUM, Strain/Indicator: TA98, Metabolic Activation: RAT, LIVER, S-9, AROCLOR 1254, Method: STANDARD PLATE)?
**A.** The mutagenic call was “active; positive”.

**Q.** What about the mutagenic call [2] of the same compound?
**A.** The mutagenic call was “inactive; negative”.

**Q.** What about the mutagenic call (Test System: AMES SALMONELLA TYPHIMURIUM, Strain/Indicator: TA100, Metabolic Activation: RAT, LIVER, S-9, AROCLOR 1254, Method: STANDARD PLATE) of the same compound?
**A.** The mutagenic call was “inactive; negative”.

**Q.** And the mutagenic call (Test System: AMES SALMONELLA TYPHIMURIUM, Strain/Indicator: TA1535, Metabolic Activation: NONE, Method: STANDARD PLATE)?
**A.** Its mutagenic call is “inactive; negative”.

**Q.** And the mutagenic call (Test System: AMES SALMONELLA TYPHIMURIUM, Strain/Indicator: TA1535, Metabolic Activation: RAT, LIVER, S-9, AROCLOR 1254, Method: STANDARD PLATE)?
**A.** Its mutagenic call is “inactive; negative”.

**Q.** What about the mutagenic call (Test System: AMES SALMONELLA TYPHIMURIUM, Strain/Indicator: TA1537, Metabolic Activation: NONE, Method: STANDARD PLATE) of the same compound?
**A.** Its mutagenic call is “inactive; negative”.

**Q.** And the mutagenic call (Test System: AMES SALMONELLA TYPHIMURIUM, Strain/Indicator: TA1537, Metabolic Activation: RAT, LIVER, S-9, AROCLOR 1254, Method: STANDARD PLATE)?
**A.** The mutagenic call was “active; positive”.

**Q.** And the mutagenic call (Test System: AMES SALMONELLA TYPHIMURIUM, Strain/Indicator: TA1538, Metabolic Activation: NONE, Method: STANDARD PLATE)?
**A.** Its mutagenic call is “inactive; negative”.

**Q.** And the mutagenic call (Test System: AMES SALMONELLA TYPHIMURIUM, Strain/Indicator: TA1978, Metabolic Activation: RAT, LIVER, S-9, AROCLOR 1254, Method: STANDARD PLATE)?
**A.** Its mutagenic call is “inactive; negative”.

**Q.** With `O=[N+]([O-])c1c2c(cc3c1ccc1ccccc13)C=C[C@@H](O)[C@@H]2O` as the compound, how does the mutagenic call [1] read?
**A.** The mutagenic call was “active; positive”.

**Q.** And the mutagenic call [2]?
**A.** The mutagenic call was “inactive; negative”.

**Q.** `Cc1ccc(C)cc1` was tested. Which mutagenic call (Test System: AMES SALMONELLA TYPHIMURIUM, Strain/Indicator: TA98, Metabolic Activation: HAMSTER, LIVER, S-9, AROCLOR 1254, Method: PREINCUBATION) did it give?
**A.** The mutagenic call was “inactive; negative”.

**Q.** And the mutagenic call [3]?
**A.** The mutagenic call was “inactive; negative”.

**Q.** What about the mutagenic call [1] of the same compound?
**A.** Its mutagenic call is “inactive; negative”.

**Q.** And the mutagenic call (Test System: AMES SALMONELLA TYPHIMURIUM, Strain/Indicator: TA98, Metabolic Activation: RAT, LIVER, S-9, AROCLOR 1254, Method: PREINCUBATION)?
**A.** Its mutagenic call is “inactive; negative”.

**Q.** And the mutagenic call (Test System: AMES SALMONELLA TYPHIMURIUM, Strain/Indicator: TA98, Metabolic Activation: RAT, LIVER, S-9, AROCLOR, Method: STANDARD PLATE)?
**A.** Its mutagenic call is “inactive; negative”.

**Q.** And the mutagenic call (Test System: AMES SALMONELLA TYPHIMURIUM, Strain/Indicator: TA98, Metabolic Activation: RAT, LIVER, S-9, KC 500, Method: PREINCUBATION)?
**A.** Its mutagenic call is “inactive; negative”.

**Q.** And the mutagenic call (Test System: AMES SALMONELLA TYPHIMURIUM, Strain/Indicator: TA100, Metabolic Activation: HAMSTER, LIVER, S-9, AROCLOR 1254, Method: PREINCUBATION)?
**A.** The mutagenic call was “inactive; negative”.

**Q.** What about the mutagenic call [4] of the same compound?
**A.** The mutagenic call was “inactive; negative”.

**Q.** What about the mutagenic call [2] of the same compound?
**A.** The mutagenic call was “inactive; negative”.

**Q.** What about the mutagenic call (Test System: AMES SALMONELLA TYPHIMURIUM, Strain/Indicator: TA100, Metabolic Activation: RAT, LIVER, S-9, AROCLOR 1254, Method: PREINCUBATION) of the same compound?
**A.** Its mutagenic call is “inactive; negative”.

**Q.** What about the mutagenic call (Test System: AMES SALMONELLA TYPHIMURIUM, Strain/Indicator: TA100, Metabolic Activation: RAT, LIVER, S-9, AROCLOR, Method: STANDARD PLATE) of the same compound?
**A.** Its mutagenic call is “inactive; negative”.

**Q.** What about the mutagenic call (Test System: AMES SALMONELLA TYPHIMURIUM, Strain/Indicator: TA100, Metabolic Activation: RAT, LIVER, S-9, KC 500, Method: PREINCUBATION) of the same compound?
**A.** Its mutagenic call is “inactive; negative”.

**Q.** And the mutagenic call (Test System: AMES SALMONELLA TYPHIMURIUM, Strain/Indicator: TA1535, Metabolic Activation: HAMSTER, LIVER, S-9, AROCLOR 1254, Method: PREINCUBATION)?
**A.** Its mutagenic call is “inactive; negative”.

**Q.** What about the mutagenic call [5] of the same compound?
**A.** The mutagenic call was “inactive; negative”.

**Q.** And the mutagenic call (Test System: AMES SALMONELLA TYPHIMURIUM, Strain/Indicator: TA1535, Metabolic Activation: RAT, LIVER, S-9, AROCLOR 1254, Method: PREINCUBATION)?
**A.** The mutagenic call was “inactive; negative”.

**Q.** What about the mutagenic call (Test System: AMES SALMONELLA TYPHIMURIUM, Strain/Indicator: TA1535, Metabolic Activation: RAT, LIVER, S-9, KC 500, Method: PREINCUBATION) of the same compound?
**A.** The mutagenic call was “inactive; negative”.

**Q.** What about the mutagenic call (Test System: AMES SALMONELLA TYPHIMURIUM, Strain/Indicator: TA1537, Metabolic Activation: HAMSTER, LIVER, S-9, AROCLOR 1254, Method: PREINCUBATION) of the same compound?
**A.** The mutagenic call was “inactive; negative”.

**Q.** What about the mutagenic call (Test System: AMES SALMONELLA TYPHIMURIUM, Strain/Indicator: TA1537, Metabolic Activation: NONE, Method: PREINCUBATION) of the same compound?
**A.** The mutagenic call was “inactive; negative”.

**Q.** What about the mutagenic call (Test System: AMES SALMONELLA TYPHIMURIUM, Strain/Indicator: TA1537, Metabolic Activation: RAT, LIVER, S-9, AROCLOR 1254, Method: PREINCUBATION) of the same compound?
**A.** The mutagenic call was “inactive; negative”.

**Q.** And the mutagenic call (Test System: AMES SALMONELLA TYPHIMURIUM, Strain/Indicator: TA1537, Metabolic Activation: RAT, LIVER, S-9, KC 500, Method: PREINCUBATION)?
**A.** Its mutagenic call is “inactive; negative”.

**Q.** And the mutagenic call (Test System: AMES SALMONELLA TYPHIMURIUM, Strain/Indicator: TA1538, Metabolic Activation: NONE, Method: PREINCUBATION)?
**A.** Its mutagenic call is “inactive; negative”.

**Q.** What about the mutagenic call (Test System: AMES SALMONELLA TYPHIMURIUM, Strain/Indicator: TA1538, Metabolic Activation: RAT, LIVER, S-9, KC 500, Method: PREINCUBATION) of the same compound?
**A.** The mutagenic call was “inactive; negative”.

**Q.** And the mutagenic call (Test System: AMES SALMONELLA TYPHIMURIUM, Strain/Indicator: UTH8413, Metabolic Activation: NONE, Method: STANDARD PLATE)?
**A.** The mutagenic call was “inactive; negative”.

**Q.** What about the mutagenic call (Test System: AMES SALMONELLA TYPHIMURIUM, Strain/Indicator: UTH8413, Metabolic Activation: RAT, LIVER, S-9, AROCLOR, Method: STANDARD PLATE) of the same compound?
**A.** The mutagenic call was “inactive; negative”.

**Q.** What about the mutagenic call (Test System: AMES SALMONELLA TYPHIMURIUM, Strain/Indicator: UTH8414, Metabolic Activation: NONE, Method: STANDARD PLATE) of the same compound?
**A.** The mutagenic call was “inactive; negative”.

**Q.** And the mutagenic call (Test System: AMES SALMONELLA TYPHIMURIUM, Strain/Indicator: UTH8414, Metabolic Activation: RAT, LIVER, S-9, AROCLOR, Method: STANDARD PLATE)?
**A.** Its mutagenic call is “inactive; negative”.

**Q.** And the mutagenic call (Test System: E. COLI, Strain/Indicator: WP2 UVRA, Metabolic Activation: NONE, Method: PREINCUBATION)?
**A.** The mutagenic call was “inactive; negative”.

**Q.** What about the mutagenic call (Test System: E. COLI, Strain/Indicator: WP2 UVRA, Metabolic Activation: RAT, LIVER, S-9, KC 500, Method: PREINCUBATION) of the same compound?
**A.** Its mutagenic call is “inactive; negative”.

**Q.** Which results are given for `Nc1ccc([As](=O)(O)O)cc1`?
**A.** mutagenic call (Test System: AMES SALMONELLA TYPHIMURIUM, Strain/Indicator: TA97, Metabolic Activation: HAMSTER, LIVER, S-9, AROCLOR 1254 (10 OR 30%), Method: PREINCUBATION): inactive; negative; mutagenic call (Test System: AMES SALMONELLA TYPHIMURIUM, Strain/Indicator: TA97, Metabolic Activation: NONE, Method: PREINCUBATION): inactive; negative; mutagenic call (Test System: AMES SALMONELLA TYPHIMURIUM, Strain/Indicator: TA97, Metabolic Activation: RAT, LIVER, S-9, AROCLOR 1254 (10 OR 30%), Method: PREINCUBATION): inactive; negative; mutagenic call (Test System: AMES SALMONELLA TYPHIMURIUM, Strain/Indicator: TA98, Metabolic Activation: HAMSTER, LIVER, S-9, AROCLOR 1254 (10 OR 30%), Method: PREINCUBATION): inactive; negative; mutagenic call [3]: inactive; negative; mutagenic call (Test System: AMES SALMONELLA TYPHIMURIUM, Strain/Indicator: TA98, Metabolic Activation: RAT, LIVER, S-9, AROCLOR 1254 (10 OR 30%), Method: PREINCUBATION): inactive; negative; mutagenic call (Test System: AMES SALMONELLA TYPHIMURIUM, Strain/Indicator: TA100, Metabolic Activation: HAMSTER, LIVER, S-9, AROCLOR 1254 (10 OR 30%), Method: PREINCUBATION): inactive; negative; mutagenic call [4]: inactive; negative; mutagenic call (Test System: AMES SALMONELLA TYPHIMURIUM, Strain/Indicator: TA100, Metabolic Activation: RAT, LIVER, S-9, AROCLOR 1254 (10 OR 30%), Method: PREINCUBATION): inactive; negative; mutagenic call (Test System: AMES SALMONELLA TYPHIMURIUM, Strain/Indicator: TA1535, Metabolic Activation: HAMSTER, LIVER, S-9, AROCLOR 1254 (10 OR 30%), Method: PREINCUBATION): inactive; negative; mutagenic call [5]: inactive; negative; mutagenic call (Test System: AMES SALMONELLA TYPHIMURIUM, Strain/Indicator: TA1535, Metabolic Activation: RAT, LIVER, S-9, AROCLOR 1254 (10 OR 30%), Method: PREINCUBATION): inactive; negative
